Laboratory results as given in US9452980B2, “Substituted benzamides” (Hoffmann-La Roche Inc., priority 2009, dated 2016).
Where a name gives a salt, the structure may show the parent alone.

molecular target: mouse TAAR1 (Mus musculus (Mouse), UniProt Q923Y8); experiment: Radioligand binding assay on mouse TAAR1; conditions: mouse TAAR1, HEK-293 membranes, first value of cell mouse/rat; read-out: Ki (μM) mouse
Procedure: (§1) For the construction of expression plasmids the coding sequences of human, rat and mouse TAAR1 were amplified from genomic DNA essentially as described by Lindemann et al.. The Expand High Fidelity PCR System (Roche Diagnostics) was used with 1.5 mM Mg^2+ and purified PCR products were cloned into pCR2.1-TOPO cloning vector (Invitrogen) following the instructions of the manufacturer. PCR products were subcloned into the pIRESneo2 vector (BD Clontech, Palo Alto, Calif.), and expression vectors were sequence verified before introduction in cell lines.
(§2) HEK293 cells (ATCC #CRL-1573) were cultured essentially as described by Lindemann et al. (2005). For the generation of stably transfected cell lines HEK293 cells were transfected with the pIRESneo2 expression plasmids containing the TAAR coding sequences (described above) with Lipofectamine 2000 (Invitrogen) according to the instructions of the manufacturer, and 24 hrs post transfection the culture medium was supplemented with 1 mg/ml G418 (Sigma, Buchs, Switzerland). After a culture period of about 10 d clones were isolated, expanded and tested for responsiveness to trace amines (all compounds purchased from Sigma) with the cAMP Biotrak Enzyme immunoassay (EIA) System (Amersham) following the non-acetylation EIA procedure provided by the manufacturer.
Radioligand Binding Assay on Mouse TAAR1
(§3) Membrane Preparation and Radioligand Binding.
(§4) HEK-293 cells stably expressing mouse TAAR1 were maintained at 37° C. and 5% CO2 in DMEM high glucose medium, containing fetal calf serum (10%, heat inactivated for 30 min at 56° C.), penicillin/streptomycin (1%), and 375 μg/ml geneticin (Gibco). Cells were released from culture flasks using trypsin/EDTA, harvested, washed twice with ice-cold PBS (without Ca^2+ and Mg^2+), pelleted at 1,000 rpm for 5 min at 4° C., frozen and stored at −80° C. Frozen pellets were suspended in 20 ml HEPES-NaOH (20 mM, pH 7.4) containing 10 mM EDTA and homogenized with a Polytron (PT 6000, Kinematica) at 14,000 rpm for 20 s. The homogenate was centrifuged at 48,000×g for 30 min at 4° C. Subsequently, the supernatant was removed and discarded, and the pellet resuspended in 20 ml HEPES-NaOH (20 mM, pH 7.4) containing 0.1 mM EDTA using the Polytron (20 s at 14,000 rpm). This procedure was repeated and the final pellet resuspended in HEPES-NaOH containing 0.1 mM EDTA and homogenized using the Polytron. Typically, aliquots of 2 ml membrane portions were stored at −80° C. With each new membrane batch the dissociation constant (Kd) was determined via a saturation curve. […] Nonspecific binding was defined as the amount of ^3[H]—(S)-4-[(ethyl-phenyl-amino)-methyl]-4,5-dihydro-oxazol-2-ylamine bound in the presence of 10 μM unlabeled ligand. All compounds were tested at a broad range of concentrations (10 pM to 10 μM) in duplicates. […] The 96 deep well plates were incubated for 1 hr at 4° C. Incubations were terminated by rapid filtration through Unifilter-96 plates (Packard Instrument Company) and glass filters GF/C (Perkin Elmer) presoaked for 1 hr in polyethylenimine (0.3%) and washed 3 times with 1 ml of cold binding buffer. After addition of 45 μl of Microscint 40 (PerkinElmer) the Unifilter-96 plate was sealed and after 1 hr the ratioactivity counted using a TopCount Microplate Scintillation Counter (Packard Instrument Company).

Sequence of mouse TAAR1 (Q923Y8 whole entry): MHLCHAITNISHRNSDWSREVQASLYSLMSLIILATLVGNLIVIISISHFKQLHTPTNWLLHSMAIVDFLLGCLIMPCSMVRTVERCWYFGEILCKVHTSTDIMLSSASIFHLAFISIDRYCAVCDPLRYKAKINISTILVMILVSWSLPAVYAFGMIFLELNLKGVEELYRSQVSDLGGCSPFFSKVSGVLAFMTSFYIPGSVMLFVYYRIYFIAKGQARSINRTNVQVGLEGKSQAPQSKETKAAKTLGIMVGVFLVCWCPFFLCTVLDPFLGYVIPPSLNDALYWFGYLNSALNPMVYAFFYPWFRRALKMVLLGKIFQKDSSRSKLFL

In order of rising Ki:
1. CCN1CCC(c2ccc(NC(=O)c3ccc(Cl)cc3)cc2)C1 (racemic) [Example 33, (RS)-4-Chloro-N-[4-(1-ethyl-pyrrolidin-3-yl)-phenyl]-benzamide]  0.0006 µM
2. O=C(Nc1ccc(C2CNCCO2)cc1)c1ccc(Cl)c(Cl)c1 (racemic) [Example 147, (RS)-3,4-Dichloro-N-(4-morpholin-2-yl-phenyl)-benzamide hydrochloride]  0.001 µM
3. CN1CCOC(c2ccc(NC(=O)c3ccc(Cl)cc3)cc2)C1 (racemic) [Example 80, (RS)-4-Chloro-N-[4-(4-methyl-morpholin-2-yl)-phenyl]-benzamide]  0.0035 µM
4. O=C(Nc1ccc(COC2CCNC2)cc1)c1ccc(Cl)cc1 (racemic) [Example 145, (RS)-4-Chloro-N-[4-(pyrrolidin-3-yloxymethyl)-phenyl]-benzamide hydrochloride]  0.0227 µM
5. O=C(Nc1ccc(C2CNCCO2)cc1)c1ccc(Cl)cn1 (racemic) [Example 148, (RS)-5-Chloro-pyridine-2-carboxylic acid (4-morpholin-2-yl-phenyl)-amide hydrochloride]  0.0393 µM
6. COc1ccc(C(=O)Nc2ccc(C3CCNC3)cc2)cc1 (racemic) [Example 183, (RS)-4-Methoxy-N-(4-(pyrrolidin-3-yl)phenyl)benzamide hydrochloride]  0.0526 µM
7. C[C@H](C(=O)Nc1ccc(C2CCNC2)cc1)c1ccccc1 (mixture of isomers) [Example 30, (S)-2-Phenyl-N—((RS)-4-pyrrolidin-3-yl-phenyl)-propionamide]  0.053 µM
8. O=C(Nc1ccc(C2CCNC2)cn1)c1ccc(Cl)cc1 (racemic) [Example 181, (RS)-4-Chloro-N-(5-(pyrrolidin-3-yl)pyridin-2-yl)benzamide hydrochloride]  0.0663 µM
9. C[C@@H](C(=O)Nc1ccc(C2CCNC2)cc1)c1ccccc1 (mixture of isomers) [Example 29, (R)-2-Phenyl-N—((RS)-4-pyrrolidin-3-yl-phenyl)-propionamide]  0.102 µM
10. O=C(Nc1ccc(C2CCCNC2)cc1)c1ccccc1 (racemic) [Example 184, (RS)—N-(4-(piperidin-3-yl)phenyl)benzamide hydrochloride]  0.153 µM
11. CC(C(=O)Nc1ccc(C2CCNC2)cc1)c1ccccc1 (racemic) [Example 25, (RS)-2-Phenyl-N—((RS)-4-pyrrolidin-3-yl-phenyl)-propionamide]  0.32 µM
12. O=C(Nc1ccc(C2CCNC2)cc1)N1CCCCC1 (racemic) [Example 28, (RS)-Piperidine-1-carboxylic acid (4-pyrrolidin-3-yl-phenyl)-amide]  0.434 µM
13. COc1cccc(C(C)C(=O)Nc2ccc(C3CCNC3)cc2)c1 (racemic) [Example 67, (RS)-2-(3-Methoxy-phenyl)-N—((RS)-4-pyrrolidin-3-yl-phenyl)-propionamide]  0.499 µM

molecular target: rat TAAR1 (Rattus norvegicus (Rat), UniProt Q923Y9); experiment: Radioligand binding assay on rat TAAR1; conditions: rat TAAR1, HEK-293 membranes, second value of cell mouse/rat; read-out: Ki (μM) rat
Procedure: as §1, §2
Radioligand Binding Assay on Rat TAAR1
as §3
as §4, with “rat” for “mouse”

Sequence of rat TAAR1 (Q923Y9 whole entry): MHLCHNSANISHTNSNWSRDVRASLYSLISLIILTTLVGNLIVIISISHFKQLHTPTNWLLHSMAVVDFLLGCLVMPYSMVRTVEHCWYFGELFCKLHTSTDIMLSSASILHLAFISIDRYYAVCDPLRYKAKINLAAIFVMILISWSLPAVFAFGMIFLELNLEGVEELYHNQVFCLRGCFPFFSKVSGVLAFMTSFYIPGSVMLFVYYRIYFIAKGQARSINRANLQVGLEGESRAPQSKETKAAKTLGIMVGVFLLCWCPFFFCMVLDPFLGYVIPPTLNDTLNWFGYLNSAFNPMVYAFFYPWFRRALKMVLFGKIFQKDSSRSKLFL

In order of falling Ki:
1. CC1(c2ccc(NC(=O)c3ccccc3)cc2)CCNC1 (racemic) [Example 41, (RS)—N-[4-(3-Methyl-pyrrolidin-3-yl)-phenyl]-benzamide]  2.98 µM
2. O=C(NCc1ccccc1)Nc1ccc(C2CCNC2)cc1 (racemic) [Example 9, (RS)-1-Benzyl-3-(4-pyrrolidin-3-yl-phenyl)-urea hydrochloride]  1.11 µM
3. CN(C(=O)Nc1ccc(C2CCNC2)cc1)c1ccccc1 (racemic) [Example 14, (RS)-1-Methyl-1-phenyl-3-(4-pyrrolidin-3-yl-phenyl)-urea]  0.645 µM
4. O=C(Nc1ccc(C2CNCCO2)cc1)C1CCN(c2ccncn2)CC1 (racemic) [Example 287, (RS)—N-(4-(Morpholin-2-yl)phenyl)-1-(pyrimidin-4-yl)piperidine-4-carboxamide dihydrochloride]  0.379 µM
5. O=C(Nc1ccc(C2CCNC2)cc1)N1CCOCC1 (racemic) [Example 21, (RS)-Morpholine-4-carboxylic acid (4-pyrrolidin-3-yl-phenyl)-amide hydrochloride]  0.359 µM
6. O=C(Nc1ccc(C2CCN(c3ccccc3)C2)cc1)c1ccc(Cl)cc1 (racemic) [Example 36, (RS)-4-Chloro-N-[4-(1-phenyl-pyrrolidin-3-yl)-phenyl]-benzamide]  0.324 µM
7. O=C(Nc1ccc(C2CCNC2)cc1)NC1CCCCC1 (racemic) [Example 10, (RS)-1-Cyclohexyl-3-(4-pyrrolidin-3-yl-phenyl)-urea hydrochloride]  0.309 µM
8. O=C(Cc1ccccc1)Nc1ccc(C2CCNC2)cc1 (racemic) [Example 12, (RS)-2-Phenyl-N-(4-pyrrolidin-3-yl-phenyl)-acetamide hydrochloride]  0.29 µM
9. COCc1ccc(C(=O)Nc2ccc(C3CCNC3)cc2)cc1 (racemic) [Example 51, (RS)-4-Methoxymethyl-N-(4-pyrrolidin-3-yl-phenyl)-benzamide hydrochloride]  0.0985 µM
10. Cc1cnc(C(=O)Nc2ccc([C@@H]3CCCNC3)cc2)cn1 [Example 247, (S)-5-Methyl-N-(4-(piperidin-3-yl)phenyl)pyrazine-2-carboxamide hydrochloride]  0.0677 µM
11. O=C(NCc1ccc([C@H]2CNCCO2)cc1)c1ccc(Cl)cc1 [Example 317, (S)-4-Chloro-N-(4-(morpholin-2-yl)benzyl)benzamide hydrochloride]  0.0226 µM
12. O=C(NCc1ccc([C@H]2CNCCO2)cc1)c1ccc(Cl)nc1 [Example 319, (S)-6-Chloro-N-(4-(morpholin-2-yl)benzyl)nicotinamide hydrochloride]  0.0206 µM
13. O=C(Nc1ccc(C2CCCNC2)cn1)c1ccc(Cl)cc1 (racemic) [Example 187, (RS)-4-Chloro-N-(5-(piperidin-3-yl)pyridin-2-yl)benzamide hydrochloride]  0.0123 µM
14. O=C(Nc1ccc(C2CNCCO2)cc1)c1ccc(Cl)cc1 (racemic) [Example 71, (RS)-4-Chloro-N-(4-morpholin-2-yl-phenyl)-benzamide hydrochloride]  0.0121 µM
15. O=C(Nc1ccc(C2CCNC2)cc1)OCCc1ccc(OC(F)(F)F)cc1 (racemic) [Example 125, (RS)-(4-Pyrrolidin-3-yl-phenyl)-carbamic acid 2-(4-trifluoromethoxy-phenyl)-ethyl ester]  0.0007 µM

same assay, conditions: read-out: Ki (μM) rat

For `O=C(NCc1ccc([C@H]2CNCCO2)cc1)c1ccc(C(F)(F)F)nc1` [Example 320, (S)—N-(4-(Morpholin-2-yl)benzyl)-6-(trifluoromethyl)nicotinamide hydrochloride], the Ki was 0.0249 µM.
